# Laboratory results taken from US20120046246A1, “METHODS FOR TREATING OSTEOCLAST-RELATED DISEASE, COMPOUNDS AND COMPOSITIONS THEREOF” (University of Florida Research Foundation, priority 2008, published 2012).
# Tests used:
# [1] = tested on: osteoclast formation in mouse marrow cultures; experiment: TRAP staining of mouse marrow cultures treated with bis-enoxacin; type: cell-based; parameters: unit of the concentration uncertain; conditions: 1 (unit uncertain)0 mM; 6 Days; TRAP positive cells
# Procedure: Mouse marrow cultures were treated with bis-enoxacin at the concentrations of 5 mM, 10 mM, 25 mM, 50 mM, and 100 mM respectively, for 6 Days in wells of a 24-well plate. The cells were fixed and stained for tartrate-resistant acid phosphatase (TRAP) activity which is a marker for osteoclasts. The number of TRAP positive mononuclear, multinuclear (2-10 nuclei) and giant (>10 nuclei) were counted.
# [2] = tested on: mouse marrow osteoclasts; experiment: actin ring count on bone slices pre-treated with bis-enoxacin; type: cell-based; conditions: bone slices pre-treated at 10 mM and 1 mM; 3 Days of culture
# Procedure: Bone slices were incubated with bis-enoxacin at the concentrations of 10 mM and 1 mM respectively. After a 1 Day incubation, the slices were washed 4 times over a period of 24H. Mouse marrow osteoclasts were then plated on the slices, and after 3 Days of culture the cells were fixed and the number of actin rings (a marker for active osteoclasts) was counted.
# [3] = tested on: mouse marrow osteoclasts on bone slices; experiment: bone resorption pitting quantified by scanning electron microscopy; type: cell-based; parameters: dose or concentration left out as unconfirmed; conditions: 5 Days
# Procedure: Mouse marrow osteoclasts were grown to maturity for 5 Days then scraped and plated on bone slices treated with bis-enoxacin at the concentrations of 30 mM, 10 mM and 1 mM respectively. After 5 Days, the cells were removed and pitting was quantified by scanning electron microscopy.
# [4] = biological target: T1, interaction between recombinantly-expressed B2 subunit and pure rabbit muscle F-actin (Homo sapiens, UniProt P21281); experiment: pelleting assay of B subunit binding to F-actin; conditions: 100 uM inhibitor compound; recombinant B subunit 1 μM, F-actin 2 μM; densitometry of SDS-PAGE gels; read-out: % inhibition
# T1 construct: made in house
# T1 sequence (P21281 whole entry): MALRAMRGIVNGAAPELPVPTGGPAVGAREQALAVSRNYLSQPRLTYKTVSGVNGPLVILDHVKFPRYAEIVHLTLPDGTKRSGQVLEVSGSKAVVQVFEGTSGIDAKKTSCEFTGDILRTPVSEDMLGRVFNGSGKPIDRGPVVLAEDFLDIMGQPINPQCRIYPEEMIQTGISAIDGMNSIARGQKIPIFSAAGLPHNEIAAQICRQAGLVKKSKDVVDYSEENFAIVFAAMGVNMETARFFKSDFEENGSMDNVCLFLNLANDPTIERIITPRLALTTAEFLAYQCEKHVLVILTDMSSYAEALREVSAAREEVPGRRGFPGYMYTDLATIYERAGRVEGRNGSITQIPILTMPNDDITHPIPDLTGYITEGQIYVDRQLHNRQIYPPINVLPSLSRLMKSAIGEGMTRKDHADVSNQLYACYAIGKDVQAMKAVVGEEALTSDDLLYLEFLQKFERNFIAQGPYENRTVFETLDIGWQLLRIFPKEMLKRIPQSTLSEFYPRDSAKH
# Procedure: Twenty-one small molecules are tested for their ability to block interaction between recombinantly-expressed B2 subunit and pure rabbit muscle F-actin.
# Recombinant B subunit (1 μM) plus/minus F-actin (2 μM)) plus/minus 100 uM inhibitor compounds were incubated for 10 minutes in 20 mM Tris/HCl (pH 7.5), 100 mM NaCl, 1 mM MgCl2, 0.2 mM CaCl2, 0.5 mM ATP, 0.2 mM DTT, then subjected to ultracentrifugation at 180,000×g for 45 min. Supernatants and pellets were collected in SDS-PAGE sample buffer, separated by SDS-PAGE, stained with Coomassie Blue, and densitometry was performed using a Flurchem 8000 (Alpha Innotech, San Leandro Calif.).
# The percent inhibition was determined by densitometry of SDS-PAGE gels. The raw densitometric number obtained of the recombinant B subunit band that was pelleted with F-actin, but with no compound present, represented 0% inhibition. The amount of the raw densitometric number of the amount of recombinant B subunit that pelleted with no actin present, but with compound, represented 100% inhibition. The amount of recombinant B subunit that pelleted with actin and the compound being tested was placed as a percentage assuming a linear response.
# [5] = tested on: osteoclast formation in calcitriol-stimulated mouse marrow cultures; experiment: osteoclastogenesis stimulated by calcitriol in mouse marrow cultures; type: cell-based
# Procedure: Enoxacin and Binhib 2 were then tested for their effects on osteoclastogenesis stimulated by calcitriol in mouse marrow cultures. The mixed cultures represent a model for the complex interactions that regulate bone resorption in vivo. […] Osteoclast and osteoblast-containing mouse bone marrow cultures are obtained as above described. 4-6-week-old Swiss-Webster mice (Harlan, Indianapolis, Ind.) are sacrificed by cervical dislocation. Femurs and tibias are dissected free of adherent tissue; the marrow is expelled by cutting both bone ends and flushing the marrow cavity with MEM D10 using a 25-gauge needle. The marrow cells are washed twice and plated in 6 well plates at a concentration of 1×10^6 nucleated cells/cm^2 in MEM D1 0 containing 10 nM calcitriol. Cultures are fed on the third and fifth day of culture by replacing half of the medium with fresh medium containing calcitriol. Cultures are treated with enoxacin at 10 μM or vehicle control on Day 1, and when the media is refreshed.
# [6] = tested on: osteoblast formation; experiment: osteoblast formation in mouse marrow cultures, judged by alkaline phosphatase expressing cells; type: cell-based; conditions: 1-10 μM
# Procedure: Enoxacin and Binhib 2 were then tested for their effects on osteoclastogenesis stimulated by calcitriol in mouse marrow cultures. The mixed cultures represent a model for the complex interactions that regulate bone resorption in vivo.
# In addition, at 1-10 μM enoxacin, osteoclast formation was inhibited while osteoblast formation, judged by alkaline phosphatase expressing cells, was not affected. And, at level of 100 μM, enoxacin blocked 90% of the B subunit from binding F-actin.
# [7] = tested on: mature osteoclasts on bone slices; experiment: ruffled membrane formation / V-ATPase trafficking in mature osteoclasts on bone slices (anti-E subunit antibody); type: cell-based
# Procedure: FIG. 7 depicts that enoxacin (10 μM) blocks ruffled membrane formation. Mature osteoclasts on bone slices were treated with enoxacin or vehicle control for 3 days, then fixed and labeled with an anti-E subunit antibody. […] Arrows point to representative osteoclasts; The present inventors also tested the effects of enoxacin on osteoclasts that were already mature and loaded onto bone slices. In this experiment, mature osteoclasts on bone slices were treated with enoxacin or vehicle control for 3 days, then fixed and labeled with an anti-E subunit antibody. Control osteoclasts produced many ruffled membranes.
# [8] = biological target: T2, V-ATPase interaction with microfilaments (F-actin) (Mus musculus, UniProt P62814); experiment: immunoprecipitation of V-ATPase from soluble osteoclast extracts; conditions: control extracts treated after homogenization, prior to immunoprecipitation
# T2 construct: endogenous in cells; host or cells: primary mouse marrow osteoclasts (RANKL-differentiated)
# T2 sequence (P62814 whole entry): as the sequence (P21281 whole entry) above, with A25M, V26A, R460K, A464T, F474Y counted along it
# Procedure: Immunoprecipitations: To further test whether enoxacin disrupts the capacity of V-ATPase to interact with microfilaments, immunoprecipitations are performed from soluble extracts of osteoclasts that had been treated with enoxacin or vehicle control using anti-E subunit and anti-a3 subunit antibodies developed by the present inventors (Zuo, J., et al. J. Bone Miner. Res. 2006, 21:714-721; Lee, B. S., et al. J. Bone Miner. Res., 1999, 14:2127-2136). It is expected that treatments of control extracts with enoxacin after cells are homogenized, but prior to immunoprecipitation, reduces the amount of F-actin attached to the immunoprecipitated V-ATPase.
# [9] = tested on: GW bodies; experiment: GW body formation; type: cell-based, mouse
# Procedure: GW bodies: GW bodies have been reported to be correlated with miRNA activity (Pauley, K. M., et al. EMBO Rep. 2006, 7:904-910; Lian, S., et al. Cell Cycle 2006, 5:242-245). Enoxacin, an enhancer of miRNA activity, is predicted to increase the number of GW bodies present and/or increase the size of GW bodies. To test whether enoxacin affects GW body formation, calcitriol-stimulated mouse marrow cultures, RANKL-stimulated primary hematopoietic cells and primary calvarial osteoblasts are treated with enoxacin. A dose response curve using doses above and below the IC50 dose is performed for inhibition of osteoclast formation and bone resorption. Osteoclast formation, staining and enumerating TRAP+ cells, and ruffled membrane formation are examined, by treating preformed osteoclasts on bone slices. Cells are fixed at various time points after treatment with enoxacin, and stain with polyclonal antibody against GW bodies and monoclonal anti-DCP1. The number of GW bodies in at least 100 randomly sampled cells is counted. The number of GW bodies is divided by the number of nuclei/cell, as determined by counting DAPI stained nuclei. This experiment is repeated in triplicate. Counts are performed by pre-calibrated assistants who are blinded to the nature of the experiment. Images are taken using a Zeiss Axiovert 200 M microscope and a Zeiss AxioCam MRm camera using the 40×0.75 NA objective.
# [10] = tested on: ovariectomized (OVX) rats; experiment: ovariectomized (OVX) rat model; type: in vivo; conditions: oral daily, 6 weeks
# Procedure: Enoxacin is tested in ovariectomized (OVX) rats that lose bone in a manner similar to that of postmenopausal women. This model has been widely and successfully utilized as an early pre-clinical model for osteoporotic disease (Pun, S., et al. Bone, 2000, 27:197-202; Wronski, T. J., et al. Endocrinology, 1993, 132:823-831; Wronski, T. J., et al. Endocrinology, 1988, 123:681-686; Iwaniec, U. T., et al. Endocrinology, 2002, 143:2515-2526). In this study, the effects of systemic administration of enoxacin are examined.
# In this study, ligands identified that block V-ATPase/F-actin interactions and bone resorption in vitro are advanced to in vivo testing in OVX rats. Female Sprague Dawley rats are subjected to sham surgery or ovariectomized at 3 months of age (see the preceding references). On the day after surgery, groups of sham operated control and OVX rats are injected subcutaneously (SC) with vehicle or treated with vehicle via oral gavage. A second group of OVX rats are injected SC 3 days/week with 17β-estradiol (Sigma, St. Louis, Mo.) at a dose of 10 μg/kg to inhibit bone resorption and prevent cancellous bone loss. The animals are treated orally with daily doses of enoxacin including 10, 100 and 400 mg/kg body weight. Each group consist of 10 rats. […] Due to the potential for enoxacin to affect intestinal flora, rats are weighed weekly and closely monitored for weight loss and diarrhea. […]
inhibition at 100 µM [4] [%],V-ATPase trafficking to ruffled membranes in mature osteoclasts ([7]; 10 μM),"ruffled membrane formation ([7]; 10 μM, 3 days)",ruffled membrane formation ([7]; concentration not given),"E subunit labeling distribution ([7]; mature osteoclasts on bone slices, 3 days)",amount of F-actin attached to the immunoprecipitated V-ATPase [8],SMILES,effects on osteoclast formation compared with enoxacin [1],reduction of actin ring numbers [2],bone resorption compared to control [3],formation of osteoclasts ([5]; 1 μM),osteoclast formation ([5]; 1-10 μM),"IC50 ([5]; Osteoclast, calcitriol-stimulated mouse marrow cultures) [µM]",osteoclast formation ([5]; concentration not given),"osteoclast formation ([5]; single dose at the onset of the marrow culture period, end of 7 Days)","osteoblast formation, judged by alkaline phosphatase expressing cells [6]",number and/or size of GW bodies [9],ruffled membranes of osteoclasts along the bone surface [10]
–,–,–,–,–,–,"CCn1cc(C(=O)O)c(=O)c2cc(F)c(N3CCN(CC(P(=O)(O)O)P(=O)(O)O)CC3)nc21 [bis-enoxacin, 7-(4-(2,2-Diphosphonoethyl)piperazin-1-yl)-1-ethyl-6-fluoro-4-oxo-1,4-dihydro-1,8-naphthyridine-3-carboxylic acid]",identical effects,approximately 60%,reduced,–,–,–,–,–,–,–,–
92,completely inhibited,blocks,disrupted,perinuclear distribution,reduces,"CCn1cc(C(=O)O)c(=O)c2cc(F)c(N3CCNCC3)nc21 [enoxacin, 1-ethyl-6-fluoro-4-oxo-7-(piperazin-1-yl)-1,4-dihydro-1,8-naphthyridine-3-carboxylic acid]",–,–,–,significantly reduced,inhibited,1,inhibits,dramatic reductions,not affected,increase,does not have ruffled membranes
